Values joined by “and” are separate entries in the source; they are usually repeats but may differ in a detail not shown here. Identical values can stand only once.
Legend:
[1] = tested on: BRD4 binding to the HIF1A promoter; assay: BRD4 ChIP-qPCR of the HIF1A promoter in A2780 cells; format: cell-based, human
Procedure: Fig. 7 NHWD-870 inhibited CSF1 expression through suppressing BRD4 and HIF1α in tumor cells. a, b Representative western blot analysis of control (Ctrl) and BRD4 knockout (KO) A375 and A2780 cells exposed to 20% or 1% O2 for 24 hours. Selected from three independent experiments. c, d Representative western blot analysis of A375 and A2780 cells treated with DMSO or 25 nM NHWD-870 and exposed to 20% or 1% O2 for 24 h. Selected from three independent experiments. e Relative HIF1 luciferase reporter activity in control (Ctrl), BRD4 knockout (KO), or NHWD-870 treated A375 and A2780 cells exposed to 20% or 1% O2 for 24 h. Data are presented as mean ± SEM from three independent experiments. f RT-qPCR analyses of CSF1 in control (Ctrl), BRD4 knockout (KO), or NHWD-870 treated A375 and A2780 cells exposed to 20% or 1% O2 for 24 hours. Data are presented as mean ± SEM from three independent experiments. g RT-qPCR analyses of HIF1A in A375 or A2780 cells treated with 15 nM NHWD-870 or DMSO control for 24 h. Data are presented as mean ± SEM from three independent experiments. h Genome browser view of BRD4 ChIP-seq peaks on the HIF1A promoter. Shown are BRD4 ChIP and input control of A375 cells (top panel) and BRD4 ChIP of MDA-MB231 cells treated with DMSO or JQ-1 (bottom panel). i BRD4 ChIP-qPCR analyses of the HIF1A promoter in A2780 cells treated with DMSO or NHWD-870 for 72 h. Data are presented as mean ± SEM from three independent experiments. j RT-qPCR analyses of CSF1 in A375 and A2780 cells were transiently transduced with HIF1α, then exposed to 1% O2 for 24 h. Ctrl, Control. Data are presented as mean ± SEM from three independent experiments. k A model showing the effects of NHWD-870 on cancer cell-TAM interaction. NHWD-870 inhibits the proliferation and survival of TAMs partly by inhibiting BRD4 activity, HIF1α expression, and CSF1 secretion by tumor cells, and downregulating CSF1R mediated ERK and PI3K/AKT signaling in TAMs. p values were calculated using two-tailed, unpaired t tests in this figure. *p < 0.05; **p < 0.01; ***p < 0.001. […]

[2] = tested on: PI3K/AKT1 and ERK phosphorylation; assay: Western blot of p-PI3K, p-AKT1 and p-ERK in TAMs; format: cell-based, mouse
Procedure: Supplementary Figure 13. NHWD-870 inhibited CSF1/CSF1R signaling pathw ay to reduce TAM […]
TA M s ( 2 ×10^5 cells) (treated with or without 10 ng/ml CSF1 and 100 nM NHWD-870 for 48 h) were seeded into the 6-well bottom chamber, in the presence or absence of A2780 cells (pre-treated with or without 100 nM NHWD-870 for 48 h) seeded into the top chamber (transwell size: 0.4μm). Shown are schematics of the experiment and representative western blot analysis of the indicated proteins (a), and quantification of the relative levels of p-PI3K, p-AKT1 and p-ERK over their respective total protein (b). Data are presented as mean ± SEM from 3 independent experiments. p values were calculated using two-tailed, unpaired t tests. n.s, no significant; **, p<0.01; ***, p<0.001. Source data are provided as a Source Data file. […]
4. Protein extraction and w estern blot anal ysis. Freshly dissected unfixed tissue was homogenized in lysis buffer. The lysates were centrifuged at 13,000g for 10 minutes at 4°C. Supernatants were collected and determined with a Bradford Protein Assay kit (Bio-Rad, Hercules, CA). The cell lysates were subjected to SDS-PAGE followed by immunoblotting (Immobilon P; Millipore, Milford, MA) with specific antibodies followed by detection using an enhanced chemilumine scence kit (Amersham Life Science, Arlington Heights, IL). […]

[3] = A2780&NHWD-870, individual replicates
[4] = CSF1&NHWD-870, individual replicates

With `Cc1nnn(C)c1-c1cnc2c3c4cnn(C)c4ccc3n([C@H](c3ccccc3)C3CCOCC3)c2c1` [NHWD-870] the “ChIP-qPCR enrichment relative to input, IgG (Fig.7i)” value ([1]; A2780, 15nM 3 days) was 0.411 and 0.4665 and 0.4566, the “ChIP-qPCR enrichment relative to input, anti-BRD4 (Fig.7i)” value ([1]; A2780, 15nM 3 days) was 0.646 and 0.721 and 0.6555 and the “BRD4 binding to the HIF1A promoter (ChIP-qPCR)” value ([1]; A2780 cells, 15nM, 72 h) was “decreased BRD4 binding to the HIF1A promoter”. The “p-AKT1 (Sup Fig.13b quantification)” value [2, 3] was 2.1 and 1.52 and 1.57, the “p-ERK (Sup Fig.13b quantification)” value [2, 3] was 1.19 and 1.05 and 0.87 and the “p-PI3K (Sup Fig.13b quantification)” value [2, 3] was 2.9 and 1.18 and 1.69. The “p-AKT1 (Sup Fig.13b quantification)” value [2, 4] was 6.88 and 4.52 and 4.09, the “p-ERK (Sup Fig.13b quantification)” value [2, 4] was 3.28 and 4.19 and 4.11 and the “p-PI3K (Sup Fig.13b quantification)” value [2, 4] was 2.92 and 3.3 and 3.78. The “CSF1-induced PI3K/AKT1 and ERK phosphorylation in TAMs” value ([2]; direct treatment of TAMs, 100 nM, 48 h) was “not affected” and the “PI3K/AKT1 and ERK activation in TAMs co-cultured with A2780 cells” value ([2]; pre-treatment of A2780 cells, 100 nM, 48 h) was “blocked”.

From article PMC7156724, “Potent BRD4 inhibitor suppresses cancer cell-macrophage interaction” (Nature Communications, 2020)
